Measurements published in patent US5674876A, “.rho.-heteroatom-substituted phenols and uses thereof” (Research Development Foundation, priority 1995, dated 1997).

Tests used:
Format in all cases: cell-based
[1] = tested on: MCF-7 McGuire (Estrogen Responsive Human Breast Cancer Cell Line); assay: Inhibition of DNA synthesis (3H-TdR uptake) / proliferation, MCF-7; conditions: for inhibition at 0.1 µg/mL / inhibition at 1 µg/mL / inhibition at 5 µg/mL / inhibition at 10 µg/mL / inhibition at 20 µg/mL: Homo sapiens, MCF7, 48 h; for inhibition at 0.1 µg/mL: MCF-7, 0.1 μg/mL; for inhibition at 1 µg/mL: MCF-7, 1 μg/mL; for inhibition at 10 µg/mL: MCF-7, 10 μg/mL
Procedure: (§1) Cells were cultured in the following media: 1) MDA MB 435 cells were cultured in Minimum Essential Media (MEM-HyClone, Logan, Utah) supplemented with 5% heat inactivated fetal bovine serum (HyClone), 2 mM glutamine (Sigma, St. Louis, Mo.), 1 mM sodium pyruvate (Sigma), 1X MEM Non-Essential Amino Acids (Sigma), 2X MEM Vitamins (Sigma), and 100 IU/mL penicillin/100 μg/mL streptomycin (HyClone); 2) MCF-7 McGuire cells were cultured in Minimum Essential Media (MEM-HyClone, Logan, Utah) supplemented with 5% heat inactivated fetal bovine serum (HyClone), 2 mM glutamine (Sigma, St. Louis, Mo.), and 100 IU/mL penicillin/100 μg/mL streptomycin (HyClone); 3) HL-60 cells were cultured in Iscoves Modified Dulbecco's Media (IMDM-HyClone, Logan, Utah) supplemented with 5% heat inactivated fetal bovine serum (HyClone), 2 mM glutamine (Sigma, St. Louis, Mo.), 1 mM sodium pyruvate (Sigma), 1X MEM Non-Essential Amino Acids (Sigma), 2X MEM Vitamins (Sigma), and 100 IU/mL penicillin/100 μg/mL streptomycin (HyClone); 2) MCF-7 McGuire cells were cultured in Minimum Essential Media (MEM-HyClone, Logan, Utah) supplemented with 5% heat inactivated fetal bovine serum (HyClone), 2 mM glutamine (Sigma, St. Louis, Mo.), and 100 IU/mL penicillin/100 μg/mL streptomycin (HyClone); 3) HL-60 cells were cultured in Iscoves Modified Dulbecco's Media (IMDM-HyClone, Logan, Utah) supplemented with 5% heat inactivated fetal bovine serum (HyClone), 2 mM glutamine (Sigma, St. Louis, Mo.), and 100 IU/mL penicillin/100 μg/mL streptomycin (HyClone).
(§2) All compounds were handled as if they were light sensitive. All compounds were initially dissolved in absolute ethanol and subsequently diluted to a final concentration of 0.5% ethanol with the appropriate medium.
(§3) For the bioassay, all cells were used at 2.5×10^5 /mL. Cells were treated with each of the compounds at concentrations of 20, 10, 5, 1, 0.1, and 0.01 μg/mL , and 200 μl of each treatment group were plated in quadruplicate in a 96 well culture plate (Corning, Corning N.Y.). Plates were done in duplicate, one plate to be used for viability testing and the other plate to examine ^3 H-TdR uptake (DNA synthesis).
(§4) Plates were cultured for 48 hours at 37° C., 5% CO2. Eight hours prior to the end of incubation, ^3 H-TdR was added to one of the duplicate plates and incubation continued for 8 hours. The cells were then harvested (trypsinization was required to harvest MDA MB 435 and MCF-7 McGuire). At the end of the incubation, the cells were removed from the wells (of the duplicate plate--no radioisotope added) and viability checked by the Trypan Blue Exclusion method. Percent viability and percent suppression of each treatment group were calculated.
(§5) With respect to the data shown in the Tables below, the data is arranged from greatest percent inhibition of DNA synthesis to lowest. […] "NT" refers to "Not Tested". The cells were cultured for 48 hours, pulsed 8 hours with tritiated thymidine, harvested and counted. MDA MB 435 is the abbreviation for the Metastic Human Breast Cancer Cell Line. MCF-7 McGuire is the abbreviation for the Estrogen Responsive Human Breast Cancer Cell Line and HL-60 is the Human Promyelocytic Leukemia Cell Line.

[2] = tested on: MDA MB 435 (Metastic Human Breast Cancer Cell Line); assay: Inhibition of DNA synthesis (3H-TdR uptake) / proliferation, MB-435; conditions: for inhibition at 0.1 µg/mL / inhibition at 1 µg/mL / inhibition at 5 µg/mL / inhibition at 10 µg/mL / inhibition at 20 µg/mL: Homo sapiens, MDA-MB-435, 48 h; for inhibition at 0.1 µg/mL: MB-435, 0.1 μg/mL; for inhibition at 1 µg/mL: MB-435, 1 μg/mL; for inhibition at 10 µg/mL: MB-435, 10 μg/mL
Procedure: as §1, §2, §3, §4, §5

[3] = tested on: HL-60 (Human Promyelocytic Leukemia Cell Line); assay: Inhibition of DNA synthesis (3H-TdR uptake) / proliferation, HL-60; conditions: for inhibition at 0.1 µg/mL / inhibition at 1 µg/mL / inhibition at 5 µg/mL / inhibition at 10 µg/mL / inhibition at 20 µg/mL: Homo sapiens, 48 h; for inhibition at 0.1 µg/mL: HL-60, 0.1 μg/mL; for inhibition at 1 µg/mL: HL-60, 1 μg/mL; for inhibition at 10 µg/mL: HL-60, 10 μg/mL
Procedure: as §1, §2, §3, §4, §5

| SMILES | inhibition at 0.1 µg/mL [1] [%] | inhibition at 1 µg/mL [1] [%] | inhibition at 5 µg/mL ([1]; MCF-7, 5 μg/mL) [%] | inhibition at 10 µg/mL [1] [%] | inhibition at 0.1 µg/mL [2] [%] | inhibition at 1 µg/mL [2] [%] | inhibition at 5 µg/mL ([2]; MB-435, 5 μg/mL) [%] | inhibition at 10 µg/mL [2] [%] | inhibition at 20 µg/mL ([2]; MB-435, 20 μg/mL) [%] | inhibition at 0.1 µg/mL [3] [%] | inhibition at 1 µg/mL [3] [%] | inhibition at 5 µg/mL ([3]; HL-60, 5 μg/mL) [%] | inhibition at 10 µg/mL [3] [%] | inhibition at 20 µg/mL ([3]; HL-60, 20 μg/mL) [%] | inhibition at 20 µg/mL ([1]; MCF-7, 20 μg/mL) [%] | inhibition of proliferation (in words) ([1]; MCF-7, 10-20 μg/mL) | inhibition of proliferation (in words) ([2]; MB-435, 10-20 μg/mL) | inhibition of proliferation (in words) ([3]; HL-60, 10-20 μg/mL) | other results |
| --- | --- | --- | --- | --- | --- | --- | --- | --- | --- | --- | --- | --- | --- | --- | --- | --- | --- | --- | --- |
| Cc1c(O)c(C)c2c(C)cn(C(=O)C(C)(C)C)c2c1C [Compound 27, N-Pivaloyl-5-hydroxy-3,4,6,7-tetramethylindole] | 0 | 14 | 57 | 86 | 4 | 15 | 54 | 91 | 97 | 0 | 12 | 61 | 91 | 97 |  |  |  |  | inhibition of proliferation (in words) ([1]; MCF-7, 5 μg/mL): significantly inhibited the proliferation; inhibition of proliferation (in words) ([2]; MB-435, 5 μg/mL): significantly inhibited the proliferation; inhibition of proliferation (in words) ([3]; HL-60, 5 μg/mL): significantly inhibited the proliferation |
| CC(=O)N1CC(C)(C)c2c(C)c(O)c(C)c(C)c21 [Compound 31b] | 0 | 0 | 29 | 18 | 0 | 0 | 0 | 15 | 33 | 0 | 0 | 6 | 15 | 28 | 22 | significantly inhibited the proliferation | significantly inhibited the proliferation | significantly inhibited the proliferation |  |
| Cc1c(C)c2c(c(C)c1O)CC1(CC1)O2 [Compound 32] | 0 | 10 | 5 | 18 | 6 | 6 | 15 | 30 | 43 | 11 | 5 | 12 | 17 | 26 | 22 | significantly inhibited the proliferation | significantly inhibited the proliferation | significantly inhibited the proliferation |  |
| Cc1cc2c(C)c(O)c(C)c(C)c2o1 [Compound 33, 5-Hydroxy-2,4,6,7-tetramethylbenzofuran] | 19 | 0 | 0 | 16 | 1 | 2 | 8 | 16 | 42 | 0 | 0 | 0 | 7 | 36 | 72 |  |  |  | inhibition of proliferation (in words) ([1]; MCF-7, 20 μg/mL): significantly inhibited the proliferation; inhibition of proliferation (in words) ([2]; MB-435, 20 μg/mL): significantly inhibited the proliferation; inhibition of proliferation (in words) ([3]; HL-60, 20 μg/mL): significantly inhibited the proliferation |
